Values quoted from earlier work, collected in patent publication US6891077B2, “Fibrinogen bandages and arterial bleeding models and methods of making and using thereof” (priority 2001, dated 2005).

Test system: coagulation and clot formation
Details: incorporated in or on fibrinogen dressings or bandages

## NCCCCCC(=O)O [ε-amino caproic acid]
  Effect on coagulation and clot formation as compared to fibrinogen bandages alone: decreased coagulation and clot formation
